Residues, ends and D or L forms follow the SMILES beside them.
Columns and labels:
Type in all cases: cell-based
[1] = tested on: beneficial oral bacteria and pathogenic oral bacteria; assay: Metabolic activity, whole panel: prebiotic effect; conditions: for prebiotic effects (metabolic activity): threshold value of 2
Description: Substrates that were able to increase the metabolic activity of at least one of the above beneficial bacteria while not or only minimally increasing the growth of the pathogenic bacteria are considered to be prebiotic substrates. The extent of metabolic activity of the tested bacteria in the presence of the above-mentioned dipeptides after 24 hours and 48 hours was investigated through a high throughput phenotype microarray system (PM) for microbial cells (Biolog Inc.). Each PM can contain up to 95 different biochemical compounds (e.g. di-peptides) that may act as substrates for bacteria as well as one negative control, not containing the substrates. Microarray plates were used in which the different wells of each plate were pre-loaded (by the manufacturer, Biolog Inc.) with different di-peptides to be tested. Each bacterial species was tested using a separate microarray plate. Thus, a single bacterial species was tested with a variety of dipeptides on each particular plate. The microarrays are based on redox technology, using cell respiration as a universal reporter. Active cell respiration results in the reduction of a tetrazolium dye and in the formation of a strong color—for example, when using the tetrazolium dye “Biolog Redox Dye Mix D”, the color changes from transparent/colourless to purple when the dye is reduced. The observation of this color change indicates which of the substrates improve the metabolic activity and health of the cells. Each bacterial species was collected from blood agar plates (incubated for 48 hours anaerobically at 37° C.) and transferred to an IF-0 Base inoculation fluid (Biolog Inc.), which is a nutritionally poor medium. The resulting cell suspension was adjusted to a transmittance of 42% (relative to the transmittance of the base inoculation fluid with no bacterial species present) at 492 nm using a BioRad SmartSpec 3000 Photometer (the adjustment being effected by adding either further inoculation fluid or further bacteria until the transmittance of 42% was achieved). A 1:5 dilution of this suspension was prepared by mixing 3 mL of the 42% transmittance cell suspension with 15 mL of an inoculation fluid (which inoculation fluid was formed by mixing 11.6 mL sterile water, 62.5 mL IF-0 base inoculation fluid and 0.9 mL of the tetrazolium dye “Biolog Redox Dye mix D”), resulting in a final cell density which was equal to 85% transmittance using a BioRad SmartSpec 3000 Photometer. 680 μL of a 2M sodium succinate/200 μM ferric citrate solution in distilled water was added to 68 mL of the 85% transmittance cell suspension and 100 μL of this mixture was added to each well (the various di-peptides being already present in powder form in the relevant wells of the plate as obtained from the supplier i.e. Biolog Inc.). All plates were incubated in an anaerobic atmosphere at 37° C. Color changes were measured spectrophotometrically at 492 nm (Thermo Scientific Multiskan Ascent) at 24 hrs and 48 hrs using the same plate at both time points. […] After 24 hrs and 48 hrs under continuous shaking in a Multiscan microplate reader, the optical density (OD) of the synthetic medium at 24 hours and 48 hours was measured (using the microplate reader) at a wavelength of 492 nm for each combination of bacterium/dipeptide, and for each of their respective controls (i.e. which contained the particular bacterium but no dipeptide). […] The experiment was carried out three times for each combination of bacterium with dipeptide, with each repeat being carried out on a different day (thus providing three biological replicas). The controls were also carried out three times, as above. The values shown are the average (mean) of the three single values obtained (as detailed above) for each combination of bacterium with dipeptide, at 24 hrs and at 48 hrs. […] This value was selected in order to exclude low-stimulating metabolites and avoid false positive results.

[2] = tested on: Porphyromonas gingivalis; assay: Metabolic activity, Biolog phenotype microarray; conditions: control without dipeptide = 1
Description: (§1) The extent of metabolic activity of the tested bacteria in the presence of the above-mentioned dipeptides after 24 hours and 48 hours was investigated through a high throughput phenotype microarray system (PM) for microbial cells (Biolog Inc.). Each PM can contain up to 95 different biochemical compounds (e.g. di-peptides) that may act as substrates for bacteria as well as one negative control, not containing the substrates. Microarray plates were used in which the different wells of each plate were pre-loaded (by the manufacturer, Biolog Inc.) with different di-peptides to be tested. Each bacterial species was tested using a separate microarray plate. Thus, a single bacterial species was tested with a variety of dipeptides on each particular plate. The microarrays are based on redox technology, using cell respiration as a universal reporter. Active cell respiration results in the reduction of a tetrazolium dye and in the formation of a strong color—for example, when using the tetrazolium dye “Biolog Redox Dye Mix D”, the color changes from transparent/colourless to purple when the dye is reduced. The observation of this color change indicates which of the substrates improve the metabolic activity and health of the cells. Each bacterial species was collected from blood agar plates (incubated for 48 hours anaerobically at 37° C.) and transferred to an IF-0 Base inoculation fluid (Biolog Inc.), which is a nutritionally poor medium. The resulting cell suspension was adjusted to a transmittance of 42% (relative to the transmittance of the base inoculation fluid with no bacterial species present) at 492 nm using a BioRad SmartSpec 3000 Photometer (the adjustment being effected by adding either further inoculation fluid or further bacteria until the transmittance of 42% was achieved). A 1:5 dilution of this suspension was prepared by mixing 3 mL of the 42% transmittance cell suspension with 15 mL of an inoculation fluid (which inoculation fluid was formed by mixing 11.6 mL sterile water, 62.5 mL IF-0 base inoculation fluid and 0.9 mL of the tetrazolium dye “Biolog Redox Dye mix D”), resulting in a final cell density which was equal to 85% transmittance using a BioRad SmartSpec 3000 Photometer. 680 μL of a 2M sodium succinate/200 μM ferric citrate solution in distilled water was added to 68 mL of the 85% transmittance cell suspension and 100 μL of this mixture was added to each well (the various di-peptides being already present in powder form in the relevant wells of the plate as obtained from the supplier i.e. Biolog Inc.). All plates were incubated in an anaerobic atmosphere at 37° C. Color changes were measured spectrophotometrically at 492 nm (Thermo Scientific Multiskan Ascent) at 24 hrs and 48 hrs using the same plate at both time points. […] After 24 hrs and 48 hrs under continuous shaking in a Multiscan microplate reader, the optical density (OD) of the synthetic medium at 24 hours and 48 hours was measured (using the microplate reader) at a wavelength of 492 nm for each combination of bacterium/dipeptide, and for each of their respective controls (i.e. which contained the particular bacterium but no dipeptide). […] The experiment was carried out three times for each combination of bacterium with dipeptide, with each repeat being carried out on a different day (thus providing three biological replicas). The controls were also carried out three times, as above. The values shown are the average (mean) of the three single values obtained (as detailed above) for each combination of bacterium with dipeptide, at 24 hrs and at 48 hrs.

[3] = tested on: Streptococcus mitis; assay: Metabolic activity, Biolog phenotype microarray; conditions: control without dipeptide = 1
Description: as §1

[4] = tested on: Veillonella parvula; assay: Metabolic activity, Biolog phenotype microarray; conditions: control without dipeptide = 1
Description: as §1

[5] = tested on: Streptococcus salivarius; assay: Metabolic activity, Biolog phenotype microarray; conditions: control without dipeptide = 1
Description: as §1

[6] = tested on: Actinomyces viscosus; assay: Metabolic activity, Biolog phenotype microarray; conditions: control without dipeptide = 1
Description: as §1

[7] = tested on: Prevotella intermedia; assay: Metabolic activity, Biolog phenotype microarray; conditions: control without dipeptide = 1
Description: as §1

[8] = tested on: Tannerella forsythia; assay: Metabolic activity, Biolog phenotype microarray; conditions: control without dipeptide = 1
Description: as §1

[9] = tested on: Actinomyces naeslundii; assay: Metabolic activity, Biolog phenotype microarray; conditions: control without dipeptide = 1
Description: as §1

[10] = tested on: Aggregatibacter actinomycetemcomitans; assay: Metabolic activity, Biolog phenotype microarray; conditions: control without dipeptide = 1
Description: as §1

[11] = tested on: Fusobacterium nucleatum; assay: Metabolic activity, Biolog phenotype microarray; conditions: control without dipeptide = 1
Description: as §1

[12] = tested on: Capnocytophaga sputigena; assay: Metabolic activity, Biolog phenotype microarray; conditions: control without dipeptide = 1
Description: as §1

[13] = tested on: Streptococcus sobrinus; assay: Metabolic activity, Biolog phenotype microarray; conditions: control without dipeptide = 1
Description: as §1

[14] = tested on: Streptococcus sanguinis; assay: Metabolic activity, Biolog phenotype microarray; conditions: control without dipeptide = 1
Description: as §1

[15] = tested on: Streptococcus mutans; assay: Metabolic activity, Biolog phenotype microarray; conditions: control without dipeptide = 1
Description: as §1

[16] = tested on: Streptococcus gordonii; assay: Metabolic activity, Biolog phenotype microarray; conditions: control without dipeptide = 1
Description: as §1

Structure (SMILES)	metabolic activity: OD 492 nm divided by OD of control ([2]; 24 hrs)	metabolic activity: OD 492 nm divided by OD of control ([2]; 48 hrs)	metabolic activity: OD 492 nm divided by OD of control ([3]; 24 hrs)	metabolic activity: OD 492 nm divided by OD of control ([3]; 48 hrs)	metabolic activity: OD 492 nm divided by OD of control ([4]; 24 hrs)	metabolic activity: OD 492 nm divided by OD of control ([4]; 48 hrs)	metabolic activity: OD 492 nm divided by OD of control ([5]; 24 hrs)	metabolic activity: OD 492 nm divided by OD of control ([5]; 48 hrs)	metabolic activity: OD 492 nm divided by OD of control ([6]; 24 hrs)	metabolic activity: OD 492 nm divided by OD of control ([6]; 48 hrs)	metabolic activity: OD 492 nm divided by OD of control ([7]; 24 hrs)	metabolic activity: OD 492 nm divided by OD of control ([7]; 48 hrs)	metabolic activity: OD 492 nm divided by OD of control ([8]; 24 hrs)	metabolic activity: OD 492 nm divided by OD of control ([8]; 48 hrs)	metabolic activity: OD 492 nm divided by OD of control ([9]; 24 hrs)	metabolic activity: OD 492 nm divided by OD of control ([9]; 48 hrs)	metabolic activity: OD 492 nm divided by OD of control ([10]; 24 hrs)	metabolic activity: OD 492 nm divided by OD of control ([10]; 48 hrs)	metabolic activity: OD 492 nm divided by OD of control ([11]; 24 hrs)	metabolic activity: OD 492 nm divided by OD of control ([11]; 48 hrs)	also measured
CC(C)C(NC(=O)C(N)CO)C(=O)O (stereo not drawn) [Ser-Val] (H-Ser-Val-OH; configuration not given here)	1.3880	1.9267	1.4166	1.8051	1.2776	1.3095	1.3826	1.9626	2.1120	2.4349	1.4709	1.7953	1.2842	1.7260	1.4073	1.7338	1.4527	1.9697	1.3741	1.5983	prebiotic effects (metabolic activity) ([1]; 24 hrs): exhibited prebiotic effects; speed of metabolism by beneficial versus pathogenic bacteria ([1]; value of 2 reached at 24 hrs for beneficial but not pathogenic bacteria): metabolized faster by the beneficial bacteria than by the pathogenic bacteria; metabolic activity: OD 492 nm divided by OD of control ([12]; 24 hrs): 1.4541; metabolic activity: OD 492 nm divided by OD of control ([12]; 48 hrs): 1.4933; metabolic activity: OD 492 nm divided by OD of control ([13]; 24 hrs): 1.3133; metabolic activity: OD 492 nm divided by OD of control ([13]; 48 hrs): 1.8354; metabolic activity: OD 492 nm divided by OD of control ([14]; 24 hrs): 1.2030; metabolic activity: OD 492 nm divided by OD of control ([14]; 48 hrs): 1.5280; metabolic activity: OD 492 nm divided by OD of control ([15]; 24 hrs): 1.4622; metabolic activity: OD 492 nm divided by OD of control ([15]; 48 hrs): 2.0721; metabolic activity: OD 492 nm divided by OD of control ([16]; 24 hrs): 1.4328; metabolic activity: OD 492 nm divided by OD of control ([16]; 48 hrs): 1.7640
NC(Cc1c[nH]cn1)C(=O)NC(Cc1c[nH]c2ccccc12)C(=O)O (stereo not drawn) [His-Trp]	1.0126	1.3518	0.9734	1.0242	1.1364	1.4269	0.9767	1.0689	1.8735	2.2797	1.0278	1.2057	0.8973	0.9897	1.3153	1.5439	0.9439	0.9818	0.9185	0.9774	prebiotic effects (metabolic activity) ([1]; 48 hrs): exhibited prebiotic effects; metabolic activity: OD 492 nm divided by OD of control ([12]; 24 hrs): 1.3266; metabolic activity: OD 492 nm divided by OD of control ([12]; 48 hrs): 1.3068; metabolic activity: OD 492 nm divided by OD of control ([13]; 24 hrs): 1.0811; metabolic activity: OD 492 nm divided by OD of control ([13]; 48 hrs): 1.2074; metabolic activity: OD 492 nm divided by OD of control ([14]; 24 hrs): 1.0228; metabolic activity: OD 492 nm divided by OD of control ([14]; 48 hrs): 1.0830; metabolic activity: OD 492 nm divided by OD of control ([15]; 24 hrs): 1.0292; metabolic activity: OD 492 nm divided by OD of control ([15]; 48 hrs): 1.5031; metabolic activity: OD 492 nm divided by OD of control ([16]; 24 hrs): 1.0431; metabolic activity: OD 492 nm divided by OD of control ([16]; 48 hrs): 1.1070
